Laboratory results from US20230158016A1, “DELTA OPIOID RECEPTOR ANTAGONISTS REPROGRAM IMMUNOSUPPRESSIVE MICROENVIRONMENT TO BOOST IMMUNOTHERAPY” (H LEE MOFFITT CANCER CENTER AND RESEARCH INSTITUTE, INC., priority 2020, published 2023).
Where a name gives a salt, the structure may show the parent alone.

Test system: Bone marrow precursors
Test: Development of MDSC from bone marrow precursors cultured in GM-CSF and G-CSF with DOR antagonists
Format: cell-based, mice
Conditions: bone marrow precursors cultured 96 hours in GM-CSF and G-CSF (20 ng/ml each), increasing concentrations of antagonist
Method: Next the effect of DOR antagonist on M-MDSC was investigated. Bone marrow precursors were isolated and cultured for 96 hours in GM-CSF and G-CSF (20 ng/ml each) in the presence of increasing concentrations of the DOR antagonists Naltriben mesylate (NTB) or Naltrindole hydrochloride (NTD). Then, we evaluated cell viability by flow cytometry (using DAPI). […] Additionally, the number of M-MDSC (CD11b^+Ly6G^negLy6C^high) and PMN-MDSC (CD11b^+Ly6G^+Ly6C^low) was calculated.
The conjugated antibodies and probes used for flow cytometry are listed in the Key Resources Table. For surface staining, cells were labelled with the appropriate antibodies in the presence of Fc blocker. For intracellular staining, surface-labeled cells were fixed with Cytofix/Cytoperm™ Solution (BD Biosciences), washed in Perm/Wash™ 1×solution, and labelled with intracellular antibodies. Cells were then washed in Perm/Wash™ 1×and PBS. Live vs. dead cell discrimination was performed prior to antibody labeling by Zombie Fixable Viability dye (Biolegend). Ex vivo intracellular staining for IL-12 and TNFα was performed on isolated cells after stimulation for 6 hours with LPS (1 μg/ml, Sigma Aldrich) in the presence of Golgi stop (0.8 μl/ml, BD Biosciences). For IFNγ staining, cells were incubated for 5 hours with phorbol myristate acetate (PMA, 750 ng/mL, Sigma Aldrich) and ionomycin (50 μg/mL, Sigma-Aldrich) in the presence and Golgi stop (0.8 μl/ml). For ER-tracker and Mitotracker staining, cells were probed with 100 nM of ER tracker green or 200 nM of Mitotracker green (Invitrogen) and then stained for surface markers. For Mitochondrial membrane potential, cells were stained with JC-1 flow cytometry assay kit (Cayman chemicals) followed by surface markers staining. ROS were detected by DCFDA (10 μM) or Dihydroethidium (DHE, 10 μM). Data acquisition was performed in a CytoFLEX II (Beckman Coulter) or LSRII (BD Biosciences). All analysis was performed using FlowJo version 11 software.

Row | Molecule | absolute number of generated MDSC (CD11b+Gr1+) | cell viability by flow cytometry (using DAPI) | number of M-MDSC (CD11b+Ly6GnegLy6Chigh) | number of PMN-MDSC (CD11b+Ly6G+Ly6Clow)
1 | Oc1ccc2c3c1O[C@H]1c4[nH]c5ccccc5c4C[C@@]4(O)[C@@H](C2)N(CC2CC2)CC[C@]314 [NTD, Naltrindole hydrochloride] | steady decline of MDSC as concentrations increased | strong correlation increasing concentration of either NTD or NTB and cell death | the more significant losses were observed in the M-MDSC subset | declined in number as the concentration of NTD or NTB increased
2 | Naltriben mesylate [NTB] | steady decline of MDSC as concentrations increased | strong correlation increasing concentration of either NTD or NTB and cell death | the more significant losses were observed in the M-MDSC subset | declined in number as the concentration of NTD or NTB increased
